Reference: patent publication US8906952B2, “Indole derivative or pharmaceutically acceptable salt thereof, preparation method thereof, and pharmaceutical composition for preventing or treating metabolic diseases containing same as active ingredient” (Korea Research Institute of Bioscience and Biotechnology, priority 2011, dated 2014)

How the values were obtained:
[1] = test system: HepG2 cells; assay: DGAT inhibitory effect in HepG2 cells (triglyceride production from [14C]glycerol); assay type: cell-based; details: Homo sapiens; for activity at 10 µM: HepG2, 6 h, DMSO control = 100, read-out: Triglyceride production rate (%)/HepG2 cells at 10 μM; for inhibition at 10 µM: HepG2, 10 μM, read-out: biosynthesis inhibition rate of triglyceride
Description: To investigate inhibition effect on intracellular DGAT enzyme activity of the compounds obtained in Examples 1-51, intracellular DGAT enzyme activity was measured using human-derived liver HepG2 cells.
HepG2 cells were purchased from ATCC, and cultured in 37° C., 5% CO2 incubator including minimum essential medium (2 mM L-glutamine, earle's BSS adjusted to contain 1.5 g/L sodium bicarbonate, 0.1 mM nonessential amino acids, and 1 mM sodium pyruvate) added with 10% fetal bovine serum (FBS) and 1% antibiotic (100 U/ml penicillin and 100 µg/ml streptomycin).
The intracellular DGAT enzyme activity was measured based on an amount of triglycerides produced in the cultured HepG2 cells, by adding 10 μM enzyme inhibitor compounds obtained in Examples 1-51, respectively, and then determining the effect of the enzyme inhibitors according to reduction rate of the triglyceride production.
Specifically, cells were seeded 1×10^6 cell/ml per well of the 24 well culture plate, and 24 hours after incubation, medium was exchanged with FBS-free DMEM medium, and sample of 0.2 mCi [^14C]glycerol (Amersham) was added as substrate, and the reaction was allowed to occur for 6 hr. The induced production of triglyceride was catalyzed by the DGAT enzyme, and DGAT enzyme activity was determined based on the amount of production of triglyceride which was measured based on the amount of radiation. The sample was dissolved in dimethylsulfoxide (DMSO) to be used, and the control group in the triglyceride production reaction was reacted with dimethylsulfoxide only (i.e., without sample), and the amount of the triglyceride production rate was set to 100.
After the reaction completed, the substrate [^14C]glycerol which was either not absorbed into cells or not used for the reaction, were removed with phosphate-buffer-saline (PBS), and 0.5 ml extraction solvent (hexane:isopropanol=3:2, v:v) was added to extract full fat containing triglycerides. With 0.5 ml extraction solvent, extract was obtained two times for 30 min each, and 1 ml of the extract was concentrated with nitrogen gas. After removing the extraction solvent, the total fat was dissolved in organic solvent (chloroform:methanol=2:1) and spotted with thin-layer chromatography (TLC:silica gel 60F254, thickness: 0.5 mm, Merck) on the developing solvent (hexane:diethyl ether:acetic acid=80:20:1, v: v: v). Triglycerides (Rf value: 0.4) were isolated on TLC, and after exposing the TLC plate to the film with photosensitivity to radiation energy (imaging plate' Fujifilm, BMS-MS 2040) for 3 hr, the amount of [^14C] radiation of triglyceride was measured by imaging analysis (FLA 7000). The remaining cells after the extraction were dissolved in 0.3 ml 0.1 N sodium hydroxide for use in the measurement of protein concentration of the cells used for the reaction.
The experimental errors among the respective experimental groups were compensated with the experimental value which was obtained by dividing the measured radiation of triglyceride by protein concentration, and the production rate of triglyceride according to the respective compounds of Examples 1-51 are tabulated below.

[2] = target: T1, human DGAT1 (Homo sapiens, UniProt O75907); assay: DGAT enzyme inhibition test, hDGAT1 enzyme from sf9 insect cells; assay type: biochemical; details: enzyme from sf9 cells overexpressing hDGAT1; read-out: hDGAT-1 (sf9) IC50
T1 construct: made in house; host or cells: sf9 insect cells
T1 sequence (O75907 1-488): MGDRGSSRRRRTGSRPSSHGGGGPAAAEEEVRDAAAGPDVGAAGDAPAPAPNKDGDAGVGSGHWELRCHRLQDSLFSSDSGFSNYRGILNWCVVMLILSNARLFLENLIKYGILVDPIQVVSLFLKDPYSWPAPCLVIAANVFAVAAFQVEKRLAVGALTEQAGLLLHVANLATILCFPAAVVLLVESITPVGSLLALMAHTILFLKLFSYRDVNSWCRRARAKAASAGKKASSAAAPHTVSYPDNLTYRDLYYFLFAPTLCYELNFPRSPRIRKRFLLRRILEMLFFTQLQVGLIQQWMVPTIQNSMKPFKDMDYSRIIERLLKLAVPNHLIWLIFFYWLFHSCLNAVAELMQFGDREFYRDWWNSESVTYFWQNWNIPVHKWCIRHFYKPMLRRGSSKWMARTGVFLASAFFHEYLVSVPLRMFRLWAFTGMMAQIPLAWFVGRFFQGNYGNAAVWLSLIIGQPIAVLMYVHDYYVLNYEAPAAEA
Excerpt: (§1) To investigate inhibitory effect of the compounds of Examples 1-33 against DGAT enzyme activity, DGAT enzyme inhibition and DGAT2 selectivity were investigated using zymogen including:
1) hDGAT1 and hDGAT2 enzymes, derived from insect cell overexpressing human DGAT1 and DGAT2 (‘sf9’), respectively,
(§2) To be specific, for the purpose of measuring human-derived DGAT enzyme inhibitory activity, using the zymogen, including enzymes derived from insect cell overexpressing human DGAT1 and DGAT2 (‘sf9’), microsomal protein isolated from human duodenal adenocarcinoma (‘Hutu 80’), and microsomal protein isolated from rat, and according to Coleman et al., (Methods Enzymol., 98-103, 1992), and substrate including 1,2-diacylglycerol(Sigma, D0138) and [^14C]palmitoyl-CoA (Amersham, CFA583), the amount of radiation of [^14C]triacylglycerol produced after enzymatic reaction was measured.
(§3) To be more specific, to the reaction solution containing 175 mM Tris-HCl (pH 8.0), 20 μl bovine serum albumin (10 mg/ml), 100 mM magnesium chloride, 30 μM [^14C]palmitoyl CoA (0.02 μCi, Amersham) and 200 μM 1,2-dioleoylglycerol, reagent dissolved in dimethylsulfoxide (10.0 μl) was added. After introducing 100 to 200 μg isolated microsomal protein and allowing the same to react at 25° C. for 10 min, the reaction was stopped by adding 1.5 ml stop solution (2-propanol:heptane:water=80:20:2, v:v:v). To isolate the product of the reaction (i.e., [^14C]triacylglycerol), 1 ml heptane and 0.5 ml distilled water were added and then decocted. After taking 1 ml supernatant, 2 ml alkaline ethanol solution (ethanol:0.5 N sodium hydroxide:water=50:10:40, v:v:v) were added and then decocted. After taking 0.65 ml supernatant from the decoction, the amount of radiation was measured with liquid scintillation counter (LSC). The DGAT inhibitory activity was calculated with Mathematical Expression 1 below:
(§4) T denotes cpm of experimental group in which the enzymatic reaction solution was treated with the sample,
(§5) C denotes cpm of control group in which the enzymatic reaction solution was not treated with the sample, and
(§6) B denotes cpm of control group treated with the sample without zymogen.

[3] = target: T2, hDGAT-1 (HuTu 80) (Homo sapiens, UniProt O75907); assay: DGAT enzyme inhibition test, microsomal protein from human duodenal adenocarcinoma (Hutu 80); assay type: biochemical; details: microsomal protein from HuTu 80
T2 construct: microsomal protein isolated from human duodenal adenocarcinoma (‘Hutu 80’); endogenous in cells; host or cells: HuTu 80 human duodenal adenocarcinoma cells (microsomes)
T2 sequence (O75907 1-488): T1 sequence (O75907 1-488)
Excerpt: as §1
2) DGAT enzyme derived from human duodenal adenocarcinoma (‘Hutu 80’), and
as §2, §3, §4, §5, §6

IC50 [2]	IC50 [3]	Structure (SMILES)	activity at 10 µM [1]	inhibition at 10 µM [1]
> 100 µM	11.2 µM	CC(C)N(NC(=O)c1ccccn1)C(=O)/C=C/c1cn(C(=O)OC(C)(C)C)c2ccccc12 [Example 2, (E)-tert-butyl 3-(3-(1-isopropyl-2-picolinoylhydrazinyl)-3-oxoprop-1-enyl)-1H-indole-1-carboxylate]	64.2%	30 to 40%
> 100 µM	6.5 µM	CC(C)N(NC(=O)c1cccnc1)C(=O)/C=C/c1cn(C(=O)OC(C)(C)C)c2ccccc12 [Example 3, (E)-tert-butyl 3-(3-(1-isopropyl-2-nicotinoylhydrazinyl)-3-oxoprop-1-enyl)-1H-indole-1-carboxylate]	66.8%	30 to 40%
> 100 µM	12.4 µM	CC(C)N(NC(=O)c1cccc(O)c1)C(=O)/C=C/c1cn(C(=O)OC(C)(C)C)c2ccccc12 [Example 4, (E)-tert-butyl 3-(3-(2-(3-hydroxybenzoyl)-1-isopropylhydrazinyl)-3-oxoprop-1-enyl)-1H-indole-1-carboxylate]	86.7%	–
22.5 µM	6.6 µM	CC(C)N(NC(=O)c1ccc(O)cc1)C(=O)/C=C/c1cn(C(=O)OC(C)(C)C)c2ccccc12 [Example 5, (E)-tert-butyl 3-(3-(2-(4-hydroxybenzoyl)-1-isopropylhydrazinyl)-3-oxoprop-1-enyl)-1H-indole-1-carboxylate]	62.2%	30 to 40%
> 100 µM	5.2 µM	COc1cccc(C(=O)NN(C(=O)/C=C/c2cn(C(=O)OC(C)(C)C)c3ccccc23)C(C)C)c1 [Example 6, (E)-tert-butyl 3-(3-(1-isopropyl-2-(3-methoxybenzoyl)hydrazinyl)-3-oxoprop-1-enyl)-1H-indole-1-carboxylate]	74.8%	20 to 30%
> 100 µM	11.6 µM	COc1ccc(C(=O)NN(C(=O)/C=C/c2cn(C(=O)OC(C)(C)C)c3ccccc23)C(C)C)cc1 [Example 7, (E)-tert-butyl 3-(3-(1-isopropyl-2-(4-methoxybenzoyl)hydrazinyl)-3-oxoprop-1-enyl)-1H-indole-1-carboxylate]	85.8%	–
> 100 µM	9.3 µM	CC(C)N(NC(=O)c1cccc(OCCN2CCOCC2)c1)C(=O)/C=C/c1cn(C(=O)OC(C)(C)C)c2ccccc12 [Example 8, (E)-tert-butyl 3-(3-(1-isopropyl-2-(3-(2-morpholinoethoxy)benzoyl)hydrazinyl)-3-oxoprop-1-enyl)-1H-indole-1-carboxylate]	85.2%	–
> 100 µM	19.6 µM	CC(C)N(NC(=O)c1ccc(OCCN2CCOCC2)cc1)C(=O)/C=C/c1cn(C(=O)OC(C)(C)C)c2ccccc12 [Example 9, (E)-tert-butyl 3-(3-(1-isopropyl-2-(4-(2-morpholinoethoxy)benzoyl)hydrazinyl)-3-oxoprop-1-enyl)-1H-indole-1-carboxylate]	83.8%	–
36.4 µM	7.7 µM	COCCOc1cccc(C(=O)NN(C(=O)/C=C/c2cn(C(=O)OC(C)(C)C)c3ccccc23)C(C)C)c1 [Example 10, (E)-tert-butyl 3-(3-(1-isopropyl-2-(3-(2-methoxyethoxy)benzoyl)hydrazinyl)-3-oxoprop-1-enyl)-1H-indole-1-carboxylate]	62%	30 to 40%
2.1 µM	–	CC(C)N(NC(=O)c1ccc(F)cc1)C(=O)/C=C/c1cn(C(=O)OC(C)(C)C)c2ccccc12 [Example 44, (E)-tert-butyl 3-(3-(2-(4-fluorobenzoyl)-1-isopropylhydrazinyl)-3-oxoprop-1-enyl)-1H-indole-1-carboxylate]	94.8%	–
1 µM	–	CC(C)CCn1cc(/C=C/C(=O)N(NC(=O)c2ccc(F)cc2)C(C)C)c2ccccc21 [Example 46, (E)-4-fluoro-N′-(3-(1-isopentyl-1H-indol-3-yl)acryloyl)-N′-isopropylbenzohydrazide]	63.5%	30 to 40%
2.9 µM	–	Cc1cccc(C(=O)NN(C(=O)/C=C/c2cn(C(=O)OC(C)(C)C)c3ccccc23)C(C)C)c1 [Example 47, (E)-tert-butyl 3-(3-(1-isopropyl-2-(3-methylbenzoyl)hydrazinyl)-3-oxoprop-1-enyl)-1H-indole-1-carboxylate]	74.7%	20 to 30%
9.8 µM	–	Cc1ccc(C(=O)NN(C(=O)/C=C/c2cn(C(=O)OC(C)(C)C)c3ccccc23)C(C)C)cc1 [Example 48, (E)-tert-butyl 3-(3-(1-isopropyl-2-(4-methylbenzoyl)hydrazinyl)-3-oxoprop-1-enyl)-1H-indole-1-carboxylate]	96.7%	–
1.5 µM	–	CC(C)=CCn1cc(/C=C/C(=O)N(NC(=O)c2ccc(F)cc2)C(C)C)c2ccccc21 [Example 49, (E)-4-fluoro-N′-isopropyl-N′-(3-(1-(3-methylbut-2-enyl)-1H-indol-3-yl)acryloyl)benzohydrazide]	55.7%	–

Structure (SMILES)	IC50 [2]	IC50 [3]	activity at 10 µM [1]	inhibition at 10 µM [1]
CC(C)N(NC(=O)c1ccccc1)C(=O)/C=C/c1cn(C(=O)OC(C)(C)C)c2ccccc12 [Example 1, (E)-tert-butyl 3-(3-(2-benzoyl-1-isopropylhydrazinyl)-3-oxoprop-1-enyl)-1H-indole-1-carboxylate]	9.6 µM	1.4 µM	60.1%	30 to 40%
